Assay results reported in PubChem BioAssay (NCI).
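The compound was tested at five concentrations on cells cultured in 96-well plates, with a 48-hour exposure period. TGI is the concentration that stops growth completely.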

Legend:
Assay in all cases: NCI-60 cell line screen, 48 h
ACHN renal = tested on: ACHN renal
HL-60(TB) leukemia = tested on: HL-60(TB) leukemia
KM12 colon = tested on: KM12 colon
NCI-H522 lung = tested on: NCI-H522 lung
OVCAR-8 ovarian = tested on: OVCAR-8 ovarian
SF-268 CNS = tested on: SF-268 CNS
SK-MEL-28 melanoma = tested on: SK-MEL-28 melanoma
SK-MEL-5 melanoma = tested on: SK-MEL-5 melanoma
SR leukemia = tested on: SR leukemia
UACC-62 melanoma = tested on: UACC-62 melanoma

SMILES	TGI (ACHN renal) [µM]	TGI (HL-60(TB) leukemia) [µM]	TGI (KM12 colon) [µM]	TGI (NCI-H522 lung) [µM]	TGI (OVCAR-8 ovarian) [µM]	TGI (SF-268 CNS) [µM]	TGI (SK-MEL-28 melanoma) [µM]	TGI (SK-MEL-5 melanoma) [µM]	TGI (SR leukemia) [µM]	TGI (UACC-62 melanoma) [µM]
COc1ccc(CCNC(=O)CCCCCO)cc1OC	> 100	> 100	> 100	> 100	> 100	> 100	> 100	> 100	> 100	> 100
CCOc1cc2c(cc1O)CC[C@@H]1[C@@H]2CC[C@]2(C)C(OS(=O)OC3CC[C@@H]4[C@H]5CCc6cc(O)c(OCC)cc6[C@@H]5CC[C@@]34C)CC[C@@H]12 (some centres not stated)	> 81.7	0.929	> 35.1	–	10	> 100	11.7	3.84	> 44	30.9
CC1(C)O[C@H]2OC(CO)C(OS(C)(=O)=O)[C@H]2O1 (some centres not stated)	> 100	> 100	> 100	> 100	> 100	> 100	> 100	> 100	–	> 100
O=C1C2=C(CCCCC2)C2CCCCC12O (configuration not stated)	> 100	> 100	> 100	> 100	> 100	> 100	> 100	–	> 100	> 100
COc1ccc(N=N/C(=N/NC(=O)c2cc(Cl)ccc2C(=O)c2ccccc2)c2ccc(N(CCC#N)CCC#N)cc2C)cc1	88.7	–	> 100	–	46.1	> 100	> 100	31.6	–	51.8
COc1ccc(-c2nnc(CCCCCCCCc3nnc(-c4ccc(OC)cc4)n3N)n2N)cc1	> 100	> 100	> 100	> 100	> 31.6	> 100	> 100	> 100	> 100	> 100
COc1cc(C2c3cc4c(cc3OC3(OC)COC(=O)C23)OCO4)cc(OC)c1OC (configuration not stated)	> 100	13.6	7.68	3.19	6.12	> 85.6	> 100	7.46	4.8	> 20.5
O=C(CCc1ccc(O)c(O)c1)NCCc1ccc(O)c(O)c1	> 100	> 100	> 100	> 100	32.4	> 100	> 100	> 100	74.1	> 100
Cc1ccc(S(=O)(=O)C2c3nc4ccccc4cc3-c3nc4ccccc4nc32)cc1 (configuration not stated)	> 100	> 100	> 100	> 100	> 100	> 100	> 100	> 100	> 100	> 100
CCC/C(Cl)=N\OC(=O)Nc1ccc(F)c([N+](=O)[O-])c1	18.1	–	32.7	4.3	31.3	29.2	34.2	35.2	–	37.7
O=S(=O)(O)c1cc(Nc2ccnc3ccccc23)c2c(S(=O)(=O)O)cc(S(=O)(=O)O)cc2c1	–	–	> 100	> 100	> 100	> 100	> 100	> 100	–	> 100
Cc1nc2c(Cl)cc(Cl)cc2c(Cl)c1CCCl	> 100	> 100	> 100	> 100	> 100	> 100	> 100	> 100	> 100	> 100
CCOC(=O)Cn1nnc2cc(Nc3nc4ccccc4nc3C(=O)OCC)ccc21	> 100	> 100	> 100	> 100	> 100	> 100	> 100	> 100	> 100	> 100
CCCCC1(N=[N+]=[N-])C(=O)C2C=CC=C3c4ccccc4N(C1=O)C32 (configuration not stated)	> 31.6	> 100	> 31.6	25.1	> 31.6	> 31.6	> 100	> 31.6	> 10	> 31.6
CCCCCCCC(=O)OCC(C[As](=O)(O)O)OC(=O)CCCCCCC (configuration not stated)	30.6	38.9	–	26.6	30.3	28.7	29.3	32	60.8	27
CC1(C)OCC(COC(=O)NCn2cc(-c3ccccc3)nn2)O1 (configuration not stated)	> 100	> 100	> 100	> 100	> 100	> 100	> 100	> 100	> 100	–
COc1ccc(-c2nnc(-c3ccncc3)o2)cc1	> 100	> 100	–	> 100	> 100	> 100	> 100	> 100	> 100	> 100
CCOC(=O)c1nc2cc(C(F)(F)F)ccc2nc1Nc1ccc(F)cc1	–	–	> 100	–	> 100	> 100	> 100	> 100	–	> 100
COC(=O)c1c(O)ccc2c1c1c(n2Cc2ccccc2OC)C(=O)c2ccccc2C1	–	> 100	> 100	–	> 100	> 100	> 100	> 100	> 100	> 100
Cc1cc2c(c(C(=O)NCCC(=O)N[C@@H](C)C(=O)OCc3ccccc3)c1)Oc1c(cc(C)cc1C(=O)NCCC(=O)N[C@@H](C)C(=O)OCc1ccccc1)S2	> 100	–	> 100	–	> 100	> 100	–	> 100	> 100	> 100
CCCCCCCCCCCCCCCCCCOc1ccc(/C=C/C2=[N+](CCCl)CCO2)cc1	> 100	> 100	> 100	> 100	> 100	–	> 100	> 100	> 100	> 100
CC(=O)NC(C)c1ccc(N=NN2CCCC2)cc1 (configuration not stated)	> 100	> 100	> 100	> 100	> 100	> 100	> 100	> 100	–	–
COc1ccc2c(c1)CC1(O)COc3cc(OC)ccc3C1O2 (configuration not stated)	> 100	–	> 100	> 100	> 100	> 100	–	> 100	> 100	> 100
